This note sets out measurements from ChEMBL document CHEMBL5120850, “Conformational adjustment overcomes multiple drug-resistance mutants of tropomyosin receptor kinase” (Eur J Med Chem, 2022).

Experiment [1] deals with BaF3. As to the kind of experiment: Antitumor activity against mouse Ba/F3 cells expressing in […] wildtype allografted in BALB/cA mouse assessed as reduction in tumor growth at 30 mg/kg twice daily for 12 to 14 days relative to control. It counts as functional. The conditions noted are these: time 12-14 day, read-out: TGI.
For experiment [2], the system named is BaF3. As to the kind of experiment: Antitumor activity against mouse Ba/F3 cells expressing in ETV6-TRKC-G623R mutant allografted in BALB/cA mouse assessed as reduction in tumor growth at 30 mg/kg twice daily for 12 to 14 days relative to control. Conditions: BaF3, read-out: TGI.

As for `O=C(Nc1cnn2ccc(N3CCC[C@@H]3c3cc(F)ccc3F)nc12)N1CC[C@H](O)C1` [LAROTRECTINIB], the inhibition in vivo at 30 mg/kg in experiment [1] came out at 30%.

As for `C[C@@H]1CCc2ncc(F)cc2[C@H]2CCCN2c2ccn3ncc(c3n2)C(=O)N1` [SELITRECTINIB], the inhibition in vivo at 30 mg/kg in experiment [2] came out at 73%.
